Our source for the IC50 values is patent US12486229B2, “Indole derivative and application thereof” (SHANGHAI MEDICILON INC., priority 2020, dated 2025).

The assay has as its target T1, S1P1 (Homo sapiens, UniProt P21453).
T1 construct: host or cells: U2OS (human osteosarcoma) cell line, U2OS-EDG1
Description: S1P1 overexpression cell activity by β-arrestin assay (U2OS-EDG1). The conditions noted are these: U2OS-EDG1 cells. It counts as cell-based. On the procedure: The following experiments were conducted to detect the activity of the compound on S1P1 overexpression cells by β-arrestin assay. [table] [table] 3. Experimental Steps Day 1: Cell Seeding Plate and Compound Treatment • (1) Firstly, the compound was diluted by a 4-fold gradient into 10 concentration points from the concentration of 10 μM in the culture plate by using NL fluid transfer system, with 2 replicates at each concentration point. • (2) Cells were resuspended by using FreeStyle™ expression medium, and the cell density was adjusted to 7,500 cells per 40 μL suspension. The samples with test concentration were added into the well of the cell culture plate, and 40 μL cell suspension was added into the corresponding well. • (3) The above cell plates were incubated overnight in a CO2 incubator with 5% (volume fraction) at 37° C. Day 2: Detection and Data Analysis • (1) The buffer solution was prepared according to the preparation method in the instructions of LiveBLAser™-fluorescence resonance energy transfer B/G loading kit. • (2) 8 μL detection reagent was added to each well, which were shaken and mixed evenly for 1 minute, centrifugated at 1,000 rpm for 10 seconds, and incubated at 23° C. in dark for 2 hours. • 3) Detection was performed by multimode reader. • 4) The PrismDemo software was used to analyze the data and fit the curve. 4. Experimental Results

What is called IC50 is the concentration needed to halve the response being measured. High values mean a need for much substance, low ones inhibition by little substance.

T1 sequence (P21453 whole entry): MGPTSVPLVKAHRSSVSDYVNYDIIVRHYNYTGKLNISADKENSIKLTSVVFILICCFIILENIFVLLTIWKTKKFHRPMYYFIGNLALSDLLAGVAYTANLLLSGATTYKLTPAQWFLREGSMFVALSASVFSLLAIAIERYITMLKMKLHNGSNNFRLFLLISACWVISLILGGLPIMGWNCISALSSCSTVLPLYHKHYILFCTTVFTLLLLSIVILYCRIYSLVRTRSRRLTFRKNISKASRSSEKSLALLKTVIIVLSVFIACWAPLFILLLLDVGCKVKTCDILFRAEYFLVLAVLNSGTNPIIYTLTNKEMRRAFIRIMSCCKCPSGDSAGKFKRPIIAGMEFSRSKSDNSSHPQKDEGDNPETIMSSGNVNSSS

`Cc1cc(OCc2ccc(C3CCCC3)c(C(F)(F)F)c2)cc2ccn(CCCC(=O)O)c12` [Compound of Example 4, 4-(5-((4-cyclopentyl-3-(trifluoromethyl)benzyl)oxy)-7-methyl-1H-indole-1-yl)butyric acid] came in with an IC50 of 1.73 nM. Molecule `CCc1cc(OCc2ccc(C3CCCC3)c(C(F)(F)F)c2)cc2ccn(CCC(=O)O)c12` [Compound of Example 2, 3-(5-((4-cyclopentyl-3-(trifluoromethyl)benzyl)oxy)-7-ethyl-1H-indole-1-yl)propionic acid] gave an IC50 of 3.27 nM.
